Earlier results on one compound are cited in PubChem BioAssay AID1259409 (Chemical Carcinogenesis Research Information System (CCRIS), 2018).

For this series, the system named is rodent chemically induced tumor inhibition, incidence and multiplicity. Briefly: CCRIS tumor inhibitor studies. The settings on record: Species: RAT, Promoter: NONE USED.

Where “and” joins values, the source holds several entries; their conditions need not be identical. Equal entries are not always repeated.

In the case of `CCOc1ccc2c(c1)C(C)=CC(C)(C)N2`, the “tumour outcome (control, treated, inhibition, significance)” value by setting is: (Carcinogen: 1,2-DIMETHYLHYDRAZINE, 540-73-8, Dose [Inhibitor]: 0, 0.8% IN DIET BEGINNING 1 WK POST LAST CARCINOGEN DOSE AND CONTINUING FOR 36 WK (STUDY DURATION: 40 WK), Route [Inhibitor]: ORAL, Strain/Sex: F344/MALE, Target Tissue: Type of Lesion: COLON: ADENOMA, Dose [Carcinogen]: 20 MG/KG 1/WK FOR 4 WK) 1/20 (5%), 4/18 (22%), -340%, not calculated; (Carcinogen: 1,2-DIMETHYLHYDRAZINE, 540-73-8, Dose [Inhibitor]: 0, 0.8% IN DIET BEGINNING 1 WK POST LAST CARCINOGEN DOSE AND CONTINUING FOR 36 WK (STUDY DURATION: 40 WK), Route [Inhibitor]: ORAL, Strain/Sex: F344/MALE, Target Tissue: Type of Lesion: COLON: CARCINOMA, Dose [Carcinogen]: 20 MG/KG 1/WK FOR 4 WK) 6/20 (30%), 7/18 (39%), -30%, not calculated; (Carcinogen: 7,12-DIMETHYLBENZ[A]ANTHRACENE, 57-97-6, Dose [Inhibitor]: 200 MG IN 1 ML OLIVE OIL ONCE (STUDY DURATION: 18 WK), Route [Inhibitor]: GAVAGE, Strain/Sex: SPRAGUE-DAWLEY/FEMALE, Target Tissue: Type of Lesion: MAMMARY GLAND: TUMOR, Dose [Carcinogen]: 12 MG IN 1 ML OLIVE OIL ADMINISTERED 1 HR AFTER INHIBITOR) 27/34 (79%), 2/17 (12%), 85%, p<0.01; (Carcinogen: CIPROFIBRATE, 52214-84-3, Dose [Inhibitor]: 0.5% IN DIET FOR 60 WK (STUDY DURATION: 60 WK), Route [Inhibitor]: ORAL, Strain/Sex: F344/MALE, Target Tissue: Type of Lesion: LIVER: TUMOR, Dose [Carcinogen]: 10 MG/KG BODY WEIGHT IN DIET SIMULTANEOUSLY WITH INHIBITOR FOR 60 WK) 21/25 (84%), 7/24 (29%), 65%, p<0.005 and 22/25 (88%), 4/24 (17%), 81%, p<0.005; (Carcinogen: N-BIS(2-HYDROXYPROPYL)NITROSAMINE, 53609-64-6, Dose [Inhibitor]: 0, 0.8% IN DIET FOR 30 WK BEGINNING POST CARCINOGEN TREATMENT (STUDY DURATION: 32 WK0, Route [Inhibitor]: ORAL, Strain/Sex: F344/MALE, Target Tissue: Type of Lesion: THYROID: ADENOMA, Dose [Carcinogen]: 0.1% IN DRINKING WATER FOR 2 WK) 1/20 (5%), 19/20 (95%), -1800%, p<0.001; (Carcinogen: N-BIS(2-HYDROXYPROPYL)NITROSAMINE, 53609-64-6, Dose [Inhibitor]: 0, 0.8% IN DIET FOR 30 WK BEGINNING POST CARCINOGEN TREATMENT (STUDY DURATION: 32 WK), Route [Inhibitor]: ORAL, Strain/Sex: F344/MALE, Target Tissue: Type of Lesion: BLADDER: ADENOMA, Dose [Carcinogen]: 0.1% IN DRINKING WATER FOR 2 WK) 5%, 5%, 0%, not significant. Further, the “tumour outcome (control, treated, inhibition, significance)” value by setting is: (Carcinogen: N-BIS(2-HYDROXYPROPYL)NITROSAMINE, 53609-64-6, Dose [Inhibitor]: 0, 0.8% IN DIET FOR 30 WK BEGINNING POST CARCINOGEN TREATMENT (STUDY DURATION: 32 WK), Route [Inhibitor]: ORAL, Strain/Sex: F344/MALE, Target Tissue: Type of Lesion: KIDNEY: TUMOR, Dose [Carcinogen]: 0.1% IN DRINKING WATER FOR 2 WK) 10%, 30%, -200%, not calculated; (Carcinogen: N-BIS(2-HYDROXYPROPYL)NITROSAMINE, 53609-64-6, Dose [Inhibitor]: 0, 0.8% IN DIET FOR 30 WK BEGINNING POST CARCINOGEN TREATMENT (STUDY DURATION: 32 WK), Route [Inhibitor]: ORAL, Strain/Sex: F344/MALE, Target Tissue: Type of Lesion: LUNG: ADENOMA, Dose [Carcinogen]: 0.1% IN DRINKING WATER FOR 2 WK) 100%, 95%, 5%, not calculated; (Carcinogen: N-BIS(2-HYDROXYPROPYL)NITROSAMINE, 53609-64-6, Dose [Inhibitor]: 0, 0.8% IN DIET FOR 30 WK BEGINNING POST CARCINOGEN TREATMENT (STUDY DURATION: 32 WK), Route [Inhibitor]: ORAL, Strain/Sex: F344/MALE, Target Tissue: Type of Lesion: LUNG: CARCINOMA, Dose [Carcinogen]: 0.1% IN DRINKING WATER FOR 2 WK) 45%, 15%, 67%, p<0.05; (Carcinogen: N-BIS(2-HYDROXYPROPYL)NITROSAMINE, 53609-64-6, Dose [Inhibitor]: 0, 0.8% IN DIET FOR 30 WK BEGINNING POST CARCINOGEN TREATMENT (STUDY DURATION: 32 WK), Route [Inhibitor]: ORAL, Strain/Sex: F344/MALE, Target Tissue: Type of Lesion: THYROID: ADENOMA, Dose [Carcinogen]: 0.1% IN DRINKING WATER FOR 2 WK) 5%, 95%, -1800%, p<0.001; (Carcinogen: N-BIS(2-HYDROXYPROPYL)NITROSAMINE, 53609-64-6, Dose [Inhibitor]: 0, 0.8% IN DIET FOR 30 WK BEGINNING POST CARCINOGEN TREATMENT (STUDY DURATION: 32 WK), Route [Inhibitor]: ORAL, Strain/Sex: F344/MALE, Target Tissue: Type of Lesion: THYROID: CARCINOMA, Dose [Carcinogen]: 0.1% IN DRINKING WATER FOR 2 WK) 20%, 50%, -150%, not calculated.
